In patent US20200003756A1, “METHOD FOR OBSERVING SEBACEOUS GLAND” (MANDOM CORPORATION, priority 2017, published 2020):

Experiments:
[1] = test system: sebaceous-gland-structure A; assay: Observation of inside of sebaceous-gland-structure, lipid droplets of sebum in outermost layer / degree of progress of sebum production (Example 2); format: cell-based; conditions: test sample D, linoleic acid 1×10^−4 M plus test substance 1 μM, 24 hours (Experiment number 9); FIGS. 9 and 10
Method: Linoleic acid and linoleic acid receptor antagonist (manufactured by Abeam plc, trade name: GSK-3787) as test substances were added to the mixed medium obtained in Preparation Example 1 so that the concentration of linoleic acid was 1×10^−4 M and so that the concentration of the test substance was 1 μM, to obtain a test sample D.
One milliliter of the test sample A was added to each well of a 24-well plate. Next, the sebaceous-gland-structure A obtained in Preparation Example 6 was cultured in a suspended state in the test sample A in each well of the 24-well plate in the presence of 5% by volume carbon dioxide at 37° C. for 24 hours, to contact the sebaceous-gland-structure A with the test sample A (Experiment number 7). […]
Furthermore, the state of each cell of 40 cells in the outermost layer shown in each figure was evaluated by using the results shown in FIGS. 7 to 9 on the basis of the evaluation criterion described below. […]
Next, the degree of progress of sebum production in the sebaceous gland cell contained in the sebaceous-gland-structure A was evaluated by calculating the mean value of the points in the 40 cells in the outermost layer in FIGS. 7 to 9. […]

[2] = test system: sebaceous-gland-structure A; assay: Degree of sebum production from three-dimensional image analysis of outermost layer (Example 4); format: cell-based; conditions: 24 hours
Method: Linoleic acid and phytic acid as test substances were added to the mixed medium obtained in Preparation Example 1 (test sample A) so that the concentration of linoleic acid was 1×10^−4M and so that the concentration of the test sample was 100 μM, to obtain a test sample E. One milliliter of the test sample A was added to each well of a 24-well plate. Text, the sebaceous-gland-structure A obtained in Preparation Example 6 was cultured in a suspended state in the test sample A contained in each well of the 24-well plate in the presence of 5% by volume carbon dioxide at 37° C. for 24 hours, to contact the sebaceous-gland-structure A with the test sample A (Experiment number 10). In addition, the sebaceous-gland-structure A was contacted with the test sample B (Experiment number 11) or the test sample E (Experiment number 12) in the same manner as in Experiment, number 10 except that in Experiment number 10, the test sample B obtained in Example 1(1) (Experiment number 11) or the test sample E obtained in Example 4(1) (Experiment number 12) was used in place of the test sample A. Each of observation samples of Experiment numbers 10 to 12 was obtained in the same manner as in Preparation Example 7 except that in Preparation Example 7, the cultured sebaceous-gland-structure A obtained in Example 4(2) (Experiment numbers 10 to 12) was used in place of the cultured sebaceous-gland-structure A obtained in Preparation Example 6. The appearance of the sebaceous-gland-structure A contained in the observation sample of each of Experiment numbers 10 to 12 obtained in Example 4(3) was observed under a confocal microscope by using image analysis software (manufactured b Bitplane AG, trade name: Imaris), thereby giving three-dimensional image of the sebaceous-gland-structure A. Next, information of the outermost layer of the sebaceous-gland-structure A was extracted from the data of the resulting three-dimensional image by using image analysis software (manufactured by Bitplane AG, trade name: Imaris). Thereafter, the whole volume of the cells present in the outermost layer was calculated from the extracted information, and thereafter the sebum droplets contained in the outermost layer were counted. Using the whole volume of the cells present in the outermost layer and the number of lipid droplets of the sebum the degree of sebum production was calculated according to Formula (I): [Degree of Sebum production]=[Number of lipid droplets of sebum]/[Whole volume of cells present in outermost layer] (I)

Structure (SMILES)	lipid droplets of sebum in the outermost layer of the sebaceous-gland-structure A [1]	sebum production-regulating action ([2]; phytic acid 100 μM in presence of linoleic acid 1×10^−4 M, conclusion from FIG. 11)	degree of sebum production (number of lipid droplets of sebum / whole volume of cells present in outermost layer) ([2]; test sample E, linoleic acid 1×10^−4 M plus phytic acid 100 μM, compared with test sample containing linoleic acid, FIG. 11)
O=C(NCCS(=O)(=O)c1ccc(C(F)(F)F)cn1)c1ccc(Cl)cc1 [linoleic acid receptor antagonist, GSK-3787]	no lipid droplet of sebum was found	–	–
O=P(O)(O)O[C@H]1[C@H](OP(=O)(O)O)[C@@H](OP(=O)(O)O)[C@H](OP(=O)(O)O)[C@@H](OP(=O)(O)O)[C@H]1OP(=O)(O)O [phytic acid]	–	sebum production-inhibiting action	lower
